Experimental data: PubChem BioAssay (NCI)
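Interpolation was linear, between the two tested concentrations surrounding the appropriate level; five concentrations were tested over 48 hours in 96-well plates. TGI: total growth inhibition.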 *1 amine or outer side, *2 acyl side, *3 side chain or, on linkers, in order; H or OH if unused. Where a SMILES comes first, the peptide text is derived from it. The star is where a group is joined. γGlu = O=C(O)[CH](CCC(=O)[*:2])N[*:1]; NHOH = ON*

Tests used:
Test in all cases: NCI tumour cell line growth inhibition, 48 h
786-0 renal = test system: 786-0 renal
A498 renal = test system: A498 renal
A549 NSCLC = test system: A549 NSCLC
ACHN renal = test system: ACHN renal
BT-549 breast = test system: BT-549 breast
CAKI-1 renal = test system: CAKI-1 renal
CCRF-CEM leukemia = test system: CCRF-CEM leukemia
COLO 205 colon = test system: COLO 205 colon
DU-145 prostate = test system: DU-145 prostate
EKVX NSCLC = test system: EKVX NSCLC
HCC-2998 colon = test system: HCC-2998 colon
HCT-116 colon = test system: HCT-116 colon
HCT-15 colon = test system: HCT-15 colon
HL-60(TB) leukemia = test system: HL-60(TB) leukemia
HOP-62 NSCLC = test system: HOP-62 NSCLC
HOP-92 NSCLC = test system: HOP-92 NSCLC
HS 578T breast = test system: HS 578T breast
HT29 colon = test system: HT29 colon
IGROV1 ovarian = test system: IGROV1 ovarian
K-562 leukemia = test system: K-562 leukemia
KM12 colon = test system: KM12 colon
LOX IMVI melanoma = test system: LOX IMVI melanoma
M14 melanoma = test system: M14 melanoma
MCF7 breast = test system: MCF7 breast
MDA-MB-231 breast = test system: MDA-MB-231 breast
MDA-MB-435 = test system: MDA-MB-435
MDA-N = test system: MDA-N
MOLT-4 leukemia = test system: MOLT-4 leukemia
NCI-H226 lung = test system: NCI-H226 lung
NCI-H23 lung = test system: NCI-H23 lung
NCI-H460 lung = test system: NCI-H460 lung
NCI-H522 lung = test system: NCI-H522 lung
NCI/ADR-RES ovarian = test system: NCI/ADR-RES ovarian
OVCAR-3 ovarian = test system: OVCAR-3 ovarian
OVCAR-4 ovarian = test system: OVCAR-4 ovarian
OVCAR-5 ovarian = test system: OVCAR-5 ovarian
OVCAR-8 ovarian = test system: OVCAR-8 ovarian
PC-3 prostate = test system: PC-3 prostate
RPMI-8226 leukemia = test system: RPMI-8226 leukemia
RXF 393 renal = test system: RXF 393 renal
SF-268 CNS = test system: SF-268 CNS
SF-295 CNS = test system: SF-295 CNS
SF-539 CNS = test system: SF-539 CNS
SK-MEL-2 melanoma = test system: SK-MEL-2 melanoma
SK-MEL-28 melanoma = test system: SK-MEL-28 melanoma
SK-MEL-5 melanoma = test system: SK-MEL-5 melanoma
SK-OV-3 ovarian = test system: SK-OV-3 ovarian
SN12C renal = test system: SN12C renal
SNB-19 CNS = test system: SNB-19 CNS
SNB-75 CNS = test system: SNB-75 CNS
SW-620 colon = test system: SW-620 colon
T-47D breast = test system: T-47D breast
TK-10 renal = test system: TK-10 renal
U251 CNS = test system: U251 CNS
UACC-257 melanoma = test system: UACC-257 melanoma
UACC-62 melanoma = test system: UACC-62 melanoma
UO-31 renal = test system: UO-31 renal
MALME-3M melanoma = test system: MALME-3M melanoma
SR leukemia = test system: SR leukemia

For `CCOC(=O)CNC(=O)C(CCC(=O)NO)NC(=O)CCC(N)C(=O)O` (centres undefined) (γGlu-Glu(NHOH)-Gly-OEt; configuration not given here), which TGI (786-0 renal) is on record?
The TGI was > 100 µM.

And the TGI (A498 renal)?
The TGI was > 100 µM.

And the TGI (A549 NSCLC)?
Its TGI is > 100 µM.

And the TGI (ACHN renal)?
Its TGI is > 100 µM.

What about the TGI (BT-549 breast) of the same compound?
Its TGI is > 100 µM.

What about the TGI (CAKI-1 renal) of the same compound?
Its TGI is > 100 µM.

And the TGI (CCRF-CEM leukemia)?
The TGI was > 100 µM.

And the TGI (COLO 205 colon)?
The TGI was > 100 µM.

And the TGI (DU-145 prostate)?
The TGI was > 100 µM.

What about the TGI (EKVX NSCLC) of the same compound?
The TGI was > 100 µM.

What about the TGI (HCC-2998 colon) of the same compound?
Its TGI is > 100 µM.

And the TGI (HCT-116 colon)?
The TGI was > 100 µM.

And the TGI (HCT-15 colon)?
Its TGI is > 100 µM.

What about the TGI (HL-60(TB) leukemia) of the same compound?
Its TGI is > 100 µM.

What about the TGI (HOP-62 NSCLC) of the same compound?
The TGI was > 100 µM.

And the TGI (HOP-92 NSCLC)?
The TGI was > 100 µM.

What about the TGI (HS 578T breast) of the same compound?
The TGI was > 100 µM.

What about the TGI (HT29 colon) of the same compound?
Its TGI is > 100 µM.

What about the TGI (IGROV1 ovarian) of the same compound?
Its TGI is > 100 µM.

And the TGI (K-562 leukemia)?
Its TGI is > 100 µM.

And the TGI (KM12 colon)?
The TGI was > 100 µM.

And the TGI (LOX IMVI melanoma)?
The TGI was > 100 µM.

What about the TGI (M14 melanoma) of the same compound?
Its TGI is > 100 µM.

What about the TGI (MCF7 breast) of the same compound?
Its TGI is > 100 µM.

What about the TGI (MDA-MB-231 breast) of the same compound?
Its TGI is > 100 µM.

And the TGI (MDA-MB-435)?
Its TGI is > 100 µM.

What about the TGI (MDA-N) of the same compound?
Its TGI is > 100 µM.

What about the TGI (MOLT-4 leukemia) of the same compound?
Its TGI is > 100 µM.

What about the TGI (NCI-H226 lung) of the same compound?
The TGI was > 100 µM.

What about the TGI (NCI-H23 lung) of the same compound?
The TGI was > 100 µM.

And the TGI (NCI-H460 lung)?
Its TGI is > 100 µM.

And the TGI (NCI-H522 lung)?
Its TGI is > 100 µM.

What about the TGI (NCI/ADR-RES ovarian) of the same compound?
Its TGI is > 100 µM.

What about the TGI (OVCAR-3 ovarian) of the same compound?
Its TGI is > 100 µM.

And the TGI (OVCAR-4 ovarian)?
The TGI was > 100 µM.

And the TGI (OVCAR-5 ovarian)?
Its TGI is > 100 µM.

And the TGI (OVCAR-8 ovarian)?
Its TGI is > 100 µM.

And the TGI (PC-3 prostate)?
The TGI was > 100 µM.

What about the TGI (RPMI-8226 leukemia) of the same compound?
The TGI was > 100 µM.

And the TGI (RXF 393 renal)?
Its TGI is > 100 µM.

What about the TGI (SF-268 CNS) of the same compound?
The TGI was > 100 µM.

What about the TGI (SF-295 CNS) of the same compound?
Its TGI is > 100 µM.

What about the TGI (SF-539 CNS) of the same compound?
The TGI was > 100 µM.

What about the TGI (SK-MEL-2 melanoma) of the same compound?
The TGI was > 100 µM.

What about the TGI (SK-MEL-28 melanoma) of the same compound?
Its TGI is > 100 µM.

What about the TGI (SK-MEL-5 melanoma) of the same compound?
Its TGI is > 100 µM.

And the TGI (SK-OV-3 ovarian)?
The TGI was > 100 µM.

And the TGI (SN12C renal)?
Its TGI is > 100 µM.

What about the TGI (SNB-19 CNS) of the same compound?
Its TGI is > 100 µM.

And the TGI (SNB-75 CNS)?
Its TGI is > 100 µM.

What about the TGI (SW-620 colon) of the same compound?
The TGI was > 100 µM.

And the TGI (T-47D breast)?
Its TGI is > 100 µM.

What about the TGI (TK-10 renal) of the same compound?
Its TGI is > 100 µM.

And the TGI (U251 CNS)?
Its TGI is > 100 µM.

What about the TGI (UACC-257 melanoma) of the same compound?
The TGI was > 100 µM.

What about the TGI (UACC-62 melanoma) of the same compound?
The TGI was > 100 µM.

What about the TGI (UO-31 renal) of the same compound?
The TGI was > 100 µM.

How did the TGI (786-0 renal) turn out when `COc1ccc(/C=C2\CCc3cc(OC)c(OC)cc3C2=O)cc1` was run?
Its TGI is > 10 µM.

And the TGI (A549 NSCLC)?
Its TGI is > 10 µM.

And the TGI (ACHN renal)?
The TGI was > 10 µM.

What about the TGI (BT-549 breast) of the same compound?
Its TGI is > 10 µM.

What about the TGI (CAKI-1 renal) of the same compound?
The TGI was > 10 µM.

And the TGI (CCRF-CEM leukemia)?
Its TGI is > 10 µM.

And the TGI (COLO 205 colon)?
The TGI was > 10 µM.

What about the TGI (DU-145 prostate) of the same compound?
The TGI was > 10 µM.

What about the TGI (EKVX NSCLC) of the same compound?
The TGI was > 10 µM.

And the TGI (HCC-2998 colon)?
Its TGI is > 10 µM.

What about the TGI (HCT-116 colon) of the same compound?
The TGI was > 10 µM.

What about the TGI (HCT-15 colon) of the same compound?
Its TGI is > 10 µM.

What about the TGI (HL-60(TB) leukemia) of the same compound?
Its TGI is > 10 µM.

What about the TGI (HOP-62 NSCLC) of the same compound?
Its TGI is > 10 µM.

What about the TGI (HOP-92 NSCLC) of the same compound?
The TGI was > 10 µM.

What about the TGI (HS 578T breast) of the same compound?
The TGI was > 10 µM.

And the TGI (HT29 colon)?
Its TGI is > 10 µM.

And the TGI (IGROV1 ovarian)?
Its TGI is > 10 µM.

And the TGI (K-562 leukemia)?
The TGI was > 10 µM.

What about the TGI (KM12 colon) of the same compound?
The TGI was > 10 µM.

And the TGI (LOX IMVI melanoma)?
The TGI was > 10 µM.

What about the TGI (M14 melanoma) of the same compound?
Its TGI is > 10 µM.

What about the TGI (MALME-3M melanoma) of the same compound?
Its TGI is > 10 µM.

And the TGI (MCF7 breast)?
Its TGI is > 10 µM.

What about the TGI (MDA-MB-231 breast) of the same compound?
The TGI was > 10 µM.

And the TGI (MDA-MB-435)?
Its TGI is > 10 µM.

What about the TGI (MDA-N) of the same compound?
The TGI was > 10 µM.

What about the TGI (MOLT-4 leukemia) of the same compound?
Its TGI is > 10 µM.

And the TGI (NCI-H226 lung)?
Its TGI is > 10 µM.

What about the TGI (NCI-H23 lung) of the same compound?
Its TGI is > 10 µM.

What about the TGI (NCI-H460 lung) of the same compound?
Its TGI is > 10 µM.

What about the TGI (NCI/ADR-RES ovarian) of the same compound?
The TGI was > 10 µM.

And the TGI (OVCAR-3 ovarian)?
The TGI was > 10 µM.

And the TGI (OVCAR-4 ovarian)?
The TGI was > 10 µM.

And the TGI (OVCAR-5 ovarian)?
The TGI was > 10 µM.

What about the TGI (OVCAR-8 ovarian) of the same compound?
The TGI was > 10 µM.

And the TGI (PC-3 prostate)?
Its TGI is > 10 µM.

And the TGI (RPMI-8226 leukemia)?
The TGI was > 10 µM.

What about the TGI (RXF 393 renal) of the same compound?
The TGI was > 10 µM.

And the TGI (SF-268 CNS)?
Its TGI is > 10 µM.

What about the TGI (SF-295 CNS) of the same compound?
Its TGI is > 10 µM.

And the TGI (SF-539 CNS)?
The TGI was > 10 µM.

What about the TGI (SK-MEL-2 melanoma) of the same compound?
Its TGI is > 10 µM.

What about the TGI (SK-MEL-28 melanoma) of the same compound?
Its TGI is > 10 µM.

And the TGI (SK-MEL-5 melanoma)?
The TGI was > 10 µM.

And the TGI (SK-OV-3 ovarian)?
Its TGI is > 10 µM.

What about the TGI (SN12C renal) of the same compound?
The TGI was > 10 µM.

What about the TGI (SNB-19 CNS) of the same compound?
The TGI was > 10 µM.

What about the TGI (SNB-75 CNS) of the same compound?
The TGI was > 10 µM.

And the TGI (SR leukemia)?
The TGI was > 10 µM.

And the TGI (SW-620 colon)?
The TGI was > 10 µM.

And the TGI (T-47D breast)?
Its TGI is > 10 µM.

And the TGI (TK-10 renal)?
Its TGI is > 10 µM.

And the TGI (U251 CNS)?
Its TGI is > 10 µM.

And the TGI (UACC-257 melanoma)?
The TGI was > 10 µM.

And the TGI (UACC-62 melanoma)?
The TGI was > 10 µM.

What about the TGI (UO-31 renal) of the same compound?
Its TGI is > 10 µM.
